biological target: T1, Trp-p8 (Homo sapiens, UniProt Q7Z2W7, T58I); test: Cell viability (ATP) assay for Trp-p8 antagonists: protection of CHO/Trp-p8 cells from toxic control agonist D-1607; type: cell-based; details: Table 2, Formula VIII antagonists; 10 μM compound plus toxic concentration of control agonist D-1607, CHO/Trp-p8 cells, 37° C.; ATP level relative to DMSO
T1 construct: expressed in transfected cells
Protocol: FIG. 4 is a graph depicting exemplary results from a primary screen for Trp-p8 antagonists using the ATP viability assay, described herein, with CHO/Trp-p8 cells at 37° C. CHO/Trp-p8 cells were exposed to compounds, at different concentrations, in 1% DMSO or 1% DMSO in combination with a toxic concentration of the Trp-p8 agonist 1607. The viability of cells was measured after 24-26 hours at 37° C. using the ATP assay.
As a primary screen for efficacy and specificity for agonists, both the non-transfected CHO and CHO/Trp-p8 cells were exposed to 10 μM of test compounds in 1% dimethylsulfoxide (DMSO) or 1% DMSO (control) in a 96-well black walled, black-bottomed, cell-culture treated plate. DMSO was the solvent for all of the compounds tested. After 24-26 hours at 37° C., the cells were lysed and ATP concentration determined via a chemiluminescence assay using a commercially available reagent kit—Cell Titer-Glo (Promega; Madison, Wis.). […] (EC50 is defined herein as the agonist concentration at which there is a 50% reduction in cell viability).
Trp-p8 antagonists were identified by employing a cell viability assay with CHO/Trp-p8 cells at 37° C. (see Example 7) with the following modification. Within the context of the present invention, compounds that protect CHO/Trp-p8 cells from the toxic effect of a control agonist thereby maintaining the viability of the CHO/Trp-p8 cell exposed to a Trp-p8 agonist is defined as antagonist. As a primary screen for antagonists, CHO/Trp-p8 cells were exposed to 10 μM of test compounds in 1% dimethylsulfoxide (DMSO) or 1% DMSO plus a toxic concentration of a control agonist, D-1607.

T1 sequence (Q7Z2W7 whole entry T58I): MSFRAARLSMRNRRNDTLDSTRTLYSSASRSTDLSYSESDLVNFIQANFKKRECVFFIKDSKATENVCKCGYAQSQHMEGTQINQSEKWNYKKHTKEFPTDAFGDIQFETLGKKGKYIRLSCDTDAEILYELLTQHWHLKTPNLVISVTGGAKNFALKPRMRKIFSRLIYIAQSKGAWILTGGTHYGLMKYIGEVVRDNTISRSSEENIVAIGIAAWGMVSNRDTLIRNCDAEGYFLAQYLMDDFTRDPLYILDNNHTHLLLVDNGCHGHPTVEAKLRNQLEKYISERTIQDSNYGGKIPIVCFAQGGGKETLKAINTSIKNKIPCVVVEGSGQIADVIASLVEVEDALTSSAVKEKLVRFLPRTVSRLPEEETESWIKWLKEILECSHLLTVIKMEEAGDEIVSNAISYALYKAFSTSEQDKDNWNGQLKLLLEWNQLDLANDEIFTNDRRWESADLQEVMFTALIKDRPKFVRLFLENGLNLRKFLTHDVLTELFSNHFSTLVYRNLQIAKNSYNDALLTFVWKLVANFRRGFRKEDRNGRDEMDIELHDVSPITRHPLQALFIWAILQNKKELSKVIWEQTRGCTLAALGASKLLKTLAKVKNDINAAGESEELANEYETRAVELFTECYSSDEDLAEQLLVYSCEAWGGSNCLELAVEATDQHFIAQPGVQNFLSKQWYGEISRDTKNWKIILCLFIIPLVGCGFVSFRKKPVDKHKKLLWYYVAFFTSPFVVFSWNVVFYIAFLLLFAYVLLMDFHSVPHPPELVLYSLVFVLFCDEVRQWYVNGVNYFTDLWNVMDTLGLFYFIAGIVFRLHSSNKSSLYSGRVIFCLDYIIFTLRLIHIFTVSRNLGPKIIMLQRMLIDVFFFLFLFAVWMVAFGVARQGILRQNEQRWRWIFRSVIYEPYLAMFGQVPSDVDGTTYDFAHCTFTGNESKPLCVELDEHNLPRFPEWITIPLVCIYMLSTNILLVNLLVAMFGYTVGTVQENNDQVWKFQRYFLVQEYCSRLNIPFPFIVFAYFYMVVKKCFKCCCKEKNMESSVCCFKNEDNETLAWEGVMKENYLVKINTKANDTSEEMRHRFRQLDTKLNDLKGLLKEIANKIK

SMILES | Relative Viability (%) at 10 μM [%]
CC(C)[C@@H]1CC[C@@H](C)C[C@H]1OC(=O)N1CCc2ccccc2C1 [compound 1457] | 112
CC(C)[C@@H]1CC[C@@H](C)C[C@H]1OC(=O)N1CCCc2ccccc21 [compound 1465] | 90
CC(C)[C@@H]1CC[C@@H](C)C[C@H]1OC(=O)N1c2ccccc2CC1C (some centres unmarked) [compound 1475] | 100
CC(C)[C@@H]1CC[C@@H](C)C[C@H]1OC(=O)N1CCc2ccccc21 [compound 1504] | 90
CC(C)[C@@H]1CC[C@@H](C)CC1C(=O)N1c2ccccc2CC1C (some centres unmarked) [compound 1588] | 88
CC(NC(=O)CO[C@@H]1C[C@H](C)CC[C@H]1C(C)C)c1ccccc1 (some centres unmarked) [compound 1664] | 107
CC(C)[C@@H]1CC[C@@H](C)C[C@H]1OCC(=O)NCc1ccccc1Cl [compound 1669] | 86
COc1ccccc1CNC(=O)CO[C@@H]1C[C@H](C)CC[C@H]1C(C)C [compound 1673] | 112
CC(C)[C@@H]1CC[C@@H](C)C[C@H]1OCC(=O)N1CCc2ccccc2C1 [compound 1688] | 91
CC(C)[C@@H]1CC[C@@H](C)C[C@H]1OCC(=O)N1c2ccccc2CC1C (some centres unmarked) [compound 1691] | 92
CC(C)[C@@H]1CC[C@@H](C)C[C@H]1OCC(=O)N1CCCc2ccccc21 [compound 1696] | 82
COc1ccccc1NC(=O)CO[C@@H]1C[C@H](C)CC[C@H]1C(C)C [compound 1709] | 95
CC(C)[C@@H]1CC[C@@H](C)C[C@H]1OCC(=O)NCCC1=CCCCC1 [compound 1743] | 97
CC(C)[C@@H]1CC[C@@H](C)C[C@H]1OCC(=O)NCC1(c2ccccc2)CCCC1 [compound 1745] | 88
CC(C)[C@@H]1CC[C@@H](C)C[C@H]1NC(=O)N1c2ccccc2CC1C (some centres unmarked) [compound 1781] | 91
CC(C)[C@@H]1CC[C@@H](C)C[C@H]1NC(=O)NCCN1CCCc2ccccc21 [compound 1815] | 87
CC(C)[C@@H]1CC[C@@H](C)C[C@H]1NC(=O)N1CCc2ccccc2C1 [compound 1819] | 86
CCCC1c2cccn2CCC1C(=O)N[C@@H]1C[C@H](C)CC[C@H]1C(C)C (some centres unmarked) [compound 1838] | 88
CC(C)[C@@H]1CC[C@@H](C)C[C@H]1NC(=O)NC1CCCCCC1 [compound 1876] | 86
CC(C)[C@@H]1CC[C@@H](C)C[C@H]1NC(=O)NCCCSC1CCCCC1 [compound 1882] | 85
CC(C)[C@@H]1CC[C@@H](C)C[C@H]1NC(=O)NCCC1=CCCCC1 [compound 1883] | 84
CC(C)[C@@H]1CC[C@@H](C)C[C@H]1NC(=O)NCCN(Cc1ccccc1)C(C)C [compound 1885] | 97
CC(C)[C@@H]1CC[C@@H](C)C[C@H]1OCC(=O)N1CCn2cccc2C1C (some centres unmarked) [compound 1918] | 94
CC(C)CN(CCNC(=O)CO[C@@H]1C[C@H](C)CC[C@H]1C(C)C)CC(C)C [compound 1920] | 81
Cc1ccccc1CCNC(=O)CO[C@@H]1C[C@H](C)CC[C@H]1C(C)C [compound 1923] | 116
CC(C)[C@@H]1CC[C@@H](C)C[C@H]1OCC(=O)NCCc1cccs1 [compound 1925] | 94
CCN(CCNC(=O)CO[C@@H]1C[C@H](C)CC[C@H]1C(C)C)c1cccc(C)c1 [compound 1937] | 101
CC(C)[C@@H]1CC[C@@H](C)C[C@H]1OC(=O)N1CCn2cccc2C1C (some centres unmarked) [compound 1940] | 110

same assay, conditions: Table 3, Formula VII antagonists; 10 μM compound plus toxic concentration of control agonist, CHO/Trp-p8 cells, 37° C.; ATP level relative to DMSO

SMILES | Rel. Viab. (%) at 10 μM [%]
c1ccc(Cc2nc(N3CCN(c4ccccn4)CC3)c3c4c(sc3n2)CCCC4)cc1 [compound 1323] | 88

— US8389730B2, “Compositions and methods for the treatment of disease associated with TRP-P8 expression” (Dendreon Corporation, priority 2003, dated 2013)
